Read-outs that look alike come from different tables or passages of the source.
What was measured:
[1] = system: U87-MG human malignant glioma cells; assay: Tumor cell proliferation inhibition (CCK-8), U87-MG; type: cell-based; details: for IC50: Homo sapiens, U-87 MG, 48 h, read-out: IC50 U87; for IC50 times lower than that of β-elemene: human U87-MG malignant glioma cells, versus β-elemene
Procedure: (§1) Human liver cancer cell Huh1, human lung cancer cell A549, and human brain glioma cell U87-MG.
(§2) • (1) A cell laboratory was routinely disinfected and a clean bench was subjected to ultraviolet radiation for more than 30 min. • (2) A culture solution (DMEM) and 0.25% trypsin were preheated in a constant-temperature water bath at 37° C. for 20 min, and dimethyl sulfoxide (DMSO) was refrigerated in a refrigerator at 4° C. for 30 min. • (3) A cryopreserved tube was taken out of a liquid nitrogen storage tank, immediately placed in a 37° C. water bath and shaken rapidly until s cryopreserved liquid was completely thawed. • (4) A cell suspension was transferred into a centrifuge tube, the culture solution was slowly added thereto, and the centrifuge tube was transferred into a centrifuge for centrifugation (120×g, 5 min). • (5) A cell concentration was adjusted with the culture solution, and resulting adjusted cells were shaken well, and placed in a 37° C., 5% CO2 incubator for culture. • (6) After the cells had attached for 24 h, the culture solution thereof was changed. When a cell density reached 80% to 90%, the cells were digested with trypsin and then subcultured.
(§3) • (1) A A549 cell suspension was adjusted to 5×10^4 cells/mL using a DMEM culture medium. […] The cells were cultured in the incubator for 1 h and an absorbance at 450 nm was measured using a THERMO FISHER Multiskan FC microplate reader. • (5) IBM SPSS Statistics 22.0 software was used to plot an S-shaped dose-survival curve using a non-linear regression model, and a survival rate and an inhibition rate were calculated using the following formulas:
(§4) [formula] [formula] • As: absorbance of the experimental well (culture medium containing cells, CCK-8, and the drug to be tested) • Ac: absorbance of the control well (culture medium containing cells, CCK-8, and no drug to be tested) • Ab: absorbance of the blank wells (culture medium without cells and drug to be tested, CCK-8)
(§5) According to the above experimental method, CCK-8 was used to determine the proliferation inhibitory effects of the isolated and purified β-elemene monomer, elemene photoaffinity probe and control compounds on three human cancer cells, namely A549 human non-small cell lung cancer cells, U87-MG human malignant glioma cells, and Huh1 human liver cancer cells.

[2] = system: A549 human non-small cell lung cancer cells; assay: Tumor cell proliferation inhibition (CCK-8), A549; type: cell-based; details: for IC50: Homo sapiens, read-out: IC50 A549; for IC50 times lower than that of β-elemene: human A549 lung cancer cells, versus β-elemene
Procedure: as §1, §2, §3, §4, §5

[3] = system: Huh1 human liver cancer cells; assay: Tumor cell proliferation inhibition (CCK-8), Huh1; type: cell-based; details: for IC50: Homo sapiens, read-out: IC50 Huh1; for IC50 times lower than that of β-elemene: human Huh1 liver cancer cells, versus β-elemene
Procedure: as §1, §2, §3, §4, §5

[4] = system: Huh1 liver cancer cells; assay: Pre-targeted imaging using molecular probe in living cells (365 nm photo-crosslinking, N3-TAMRA click, confocal microscopy); type: cell-based, human
Procedure: In order to determine whether the molecular probe could enter the cell and explore the binding site of the targeted biomacromolecule thereof, the experiment was conducted as follows.
DMEM culture medium, PBS, 4% paraformaldehyde tissue cell fixative, Triton X-100, 5% BSA blocking solution, DAPI staining solution, Cu2SO4, sodium ascorbate, THPTA, N3-TAMRA
• (1) 10^5 Huh1 liver cancer cells were inoculated into glass-bottomed culture dishes and cultured in a 37° C., 5% CO2 incubator until the cells adhered to wall. • (2) DMEM culture medias containing different drug concentrations were added to the culture dishes and incubated overnight in the 37° C., 5% CO2 incubator. • (3) After removing the drug-containing culture mediums, resulting cells were washed with pre-cooled PBS ([…]) for 3 min, placed on ice, and irradiated at 365 nm for 15 min. • (4) Resulting irradiated cells were treated with 1 mL of 4% paraformaldehyde tissue cell fixative for 15 min, the paraformaldehyde tissue cell fixative was removed, and resulting cells were washed with pre-cooled PBS. • (5) Resulting washed cells were permeabilized with 500 μL of 0.1% Triton X-100 in PBS for 10 min, then blocked with 1 mL of 5% BSA blocking solution for 30 min, the blocking solution was removed, and resulting cells were washed with pre-cooled PBS (3×1 mL). • (6) 200 μL of freshly prepared Click reaction solution (20 μM N3-TAMRA, 400 μM Cu2SO4, 400 μM THPTA, 2 mM sodium ascorbate) was added to washed cells obtained in step • (5), incubated under shaking at room temperature for 2 h, the reaction solution was removed, and resulting cells were washed with pre-cooled PBS (3×1 mL) for 3 min. • (7) 200 μL of DAPI staining solution was added to washed cells obtained in step (6) and stained for 6 min, the staining solution was removed, and resulting cells were washed with pre-cooled PBS (3×1 mL) for 3 min, and then imaged with a laser scanning confocal microscope.
According to the above experimental method, the cell images of the β-elemene photoaffinity probe (Compound 2) and a control Compound 6 and β-elemene were measured.

Work on `C#CCCC(=O)NCCOCCOCCC(=O)N[C@H](CCC1(C)N=N1)C(=O)N1CC2CN(CC(=C)[C@@H]3CC[C@@](C)(C=C)[C@H](C(=C)C)C3)CC2C1` (stereo partly drawn) [Compound 4] yielded an IC50 ([1]; U87-MG cells, CCK-8) of 47.2 ± 2.21 µM, an IC50 ([2]; A549 cells, 48 h, CCK-8) of 48.4 ± 1.7 µM and an IC50 ([3]; HuH-1, Huh1 cells, 48 h, CCK-8) of 54.5 ± 3.26 µM.
In the case of `C#CCCC(=O)NCCOCCOCCC(=O)N[C@H](CCC1(C)N=N1)C(=O)N1CCN(CC(=C)[C@@H]2CC[C@@](C)(C=C)[C@H](C(=C)C)C2)CC1` [Compound 1], the IC50 ([1]; U87-MG cells, CCK-8) is reported as 38.7 ± 1.91 µM, the IC50 ([2]; A549 cells, 48 h, CCK-8) is reported as 29.3 ± 1.63 µM and the “IC50 times lower than that of β-elemene” value [2] is reported as “more than 5 times”. For the same compound, the IC50 ([3]; HuH-1, Huh1 cells, 48 h, CCK-8) was 18.7 ± 1.54 µM and the “IC50 times lower than that of β-elemene” value [3] was “more than 10 times”.
With `C#CCCC(=O)NCCOCCOCCC(=O)N[C@H](CCC1(C)N=N1)C(=O)NCCN1CCN(CC(=C)[C@@H]2CC[C@@](C)(C=C)[C@H](C(=C)C)C2)CC1` [Compound 2] the IC50 ([1]; U87-MG cells, CCK-8) was 25.5 ± 4.79 µM, the IC50 ([2]; A549 cells, 48 h, CCK-8) was 37.8 ± 3.36 µM and the “IC50 times lower than that of β-elemene” value [2] was “more than 5 times”. The IC50 ([3]; HuH-1, Huh1 cells, 48 h, CCK-8) was 20.12 ± 0.16 µM, the “IC50 times lower than that of β-elemene” value [3] was “more than 10 times” and the “intracellular Rhodamine Red fluorescence, with UV irradiation” value ([4]; 20 μM, with UV irradiation (365 nm, 15 min)) was “strong intracellular Rhodamine Red fluorescence”. The “intracellular Rhodamine Red fluorescence, without UV irradiation” value ([4]; 20 μM, without UV irradiation) was “no intracellular Rhodamine Red fluorescence” and the “binding of the probe to the target” value ([4]; conclusion from competition imaging) was “non-covalent”.
With `C#CCCC(=O)NCCOCCOCCC(=O)N[C@H](CCC1(C)N=N1)C(=O)NCCOCCOCCN1CCN(CC(=C)[C@@H]2CC[C@@](C)(C=C)[C@H](C(=C)C)C2)CC1` [Compound 3] the IC50 ([1]; U87-MG cells, CCK-8) was 19.3 ± 3.3 µM, the “IC50 times lower than that of β-elemene” value [1] was “more than 10 times” and the IC50 ([2]; A549 cells, 48 h, CCK-8) was 44.6 ± 7.68 µM. The IC50 ([3]; HuH-1, Huh1 cells, 48 h, CCK-8) was 22.8 ± 3.07 µM and the “IC50 times lower than that of β-elemene” value [3] was “more than 10 times”.
With `C=C[C@]1(C)CC[C@@H](C(=C)C)C[C@H]1C(=C)C` [β-elemene, reference compound] the IC50 ([1]; U87-MG cells, CCK-8) was 218 ± 9.58 µM, the IC50 ([2]; A549 cells, 48 h, CCK-8) was 213 ± 5.29 µM and the IC50 ([3]; HuH-1, Huh1 cells, 48 h, CCK-8) was 306 ± 31.7 µM. The “intensity of intracellular Rhodamine Red fluorescence of Compound 2 in presence of competitor” value ([4]; competitor β-elemene (50 μM) with Compound 2 (20 μM), UV irradiation) was “greatly weakened” and the competitive binding ([4]; versus Compound 2, conclusion from competition imaging) was “can competitively bind to Compound 2”.
For `C#CCCC(=O)NCCOCCOCCC(=O)N[C@@H](CCC1(C)N=N1)C(=O)NCCOCCOCCN1CC2CN(CC(=C)[C@@H]3CC[C@@](C)(C=C)[C@H](C(=C)C)C3)CC2C1` (stereo partly drawn) [Compound 5], the IC50 [1] was 14.1 ± 1.72 µM, the “IC50 times lower than that of β-elemene” value [1] was “more than 10 times” and the IC50 ([2]; A549, 48 h) was 28.4 ± 3.36 µM. The “IC50 times lower than that of β-elemene” value [2] was “more than 5 times”, the IC50 ([3]; HuH-1, 48 h) was 17.1 ± 0.8 µM and the “IC50 times lower than that of β-elemene” value [3] was “more than 10 times”.
In the case of `C=C[C@]1(C)CC[C@@H](C(=C)CN2CC3CN(C)CC3C2)C[C@H]1C(=C)C` (stereo partly drawn) [Compound 7], the IC50 [1] is reported as 23.3 ± 0.84 µM, the IC50 ([2]; A549, 48 h) is reported as 43.4 ± 2.14 µM and the IC50 ([3]; HuH-1, 48 h) is reported as 24.3 ± 4.02 µM. For the same compound, the “IC50 times lower than that of β-elemene” value [3] was “more than 10 times”.

From patent US20260308128A1, “BETA-ELEMENE DERIVATIVE CONTAINING PHOTOAFFINITY GROUP DIAZIRINE, AND PREPARATION METHOD AND USE THEREOF AS PHOTOAFFINITY MOLECULAR PROBE” (HANGZHOU NORMAL UNIVERSITY, priority 2022, published 2026)
